The assay addresses T1, B1R of the rat (Rattus norvegicus, UniProt P97583).
T1 construct: expressed in transfected cells; host or cells: CHO K1 cells (rB1R cells)
T1 sequence (P97583 1-337): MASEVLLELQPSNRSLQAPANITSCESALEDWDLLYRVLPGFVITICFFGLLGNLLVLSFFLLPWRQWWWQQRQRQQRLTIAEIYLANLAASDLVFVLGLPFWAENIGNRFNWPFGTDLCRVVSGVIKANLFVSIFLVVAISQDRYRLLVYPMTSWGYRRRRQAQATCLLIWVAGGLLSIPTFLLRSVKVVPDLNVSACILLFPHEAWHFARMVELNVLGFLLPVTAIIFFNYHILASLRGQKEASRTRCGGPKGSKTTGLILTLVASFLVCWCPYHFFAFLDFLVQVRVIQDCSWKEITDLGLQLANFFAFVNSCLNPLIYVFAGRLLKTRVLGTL
Nature of the assay: FLIPR Ca2+ influx assay, B1R antagonism, rat (rB1R CHO K1 cells). Type of assay: cell-based. The note with it: test substance 10 μM, CHO K1 cells stably transfected with rat B1R, agonist Des-Arg9-bradykinin at EC80, % inhibition compared with maximum achievable inhibition; for inhibition at 10 µM: read-out: B1R antagonism, rat [10 μM] % inhibition. Here is the method:
The agonistic or antagonistic action of substances can be quantified on the bradykinin receptor 1 (B1R) of the species human and rat using ectopically expressing cell lines (CHO K1 cells) and with the aid of a Ca^2+-sensitive dye (Fluo-4) using a fluorescent imaging plate reader (FLIPR). The indication in % activation is based on the Ca^2+ signal after addition of Lys-Des-Arg^9-bradykinin (0.5 nM) or Des-Arg^9-bradykinin (100 nM). Antagonists lead to suppression of the Ca^2+ influx after the addition of the agonist. % Inhibition compared with the maximum achievable inhibition is indicated.
The agonistic or antagonistic action of substances can be determined on the bradykinin receptor 1 (B1R) of the species human and rat using the following assay. According to this assay, the Ca^2+ influx through the channel is quantified with the aid of a Ca^2+-sensitive dye (Fluo-4 type, Molecular Probes Europe BV, Leiden, Netherlands) using a Fluorescent Imaging Plate Reader (FLIPR, Molecular Devices, Sunnyvale, USA).
Chinese hamster ovary cells (CHO K1 cells) which have been stably transfected with the human B1R gene (hB1R cells) or with the B1R gene of the rat (rB1R cells) are used. For functional studies, the cells are plated out on black 96-well plates having a clear base (BD Biosciences, Heidelberg, Germany or Greiner, Frickenhausen, Germany) in a density of 20,000-35,000 cells/well. The cells are incubated overnight at 37° C. and with 5% CO2 in culture medium (hB1R cells: Nutrient Mixture Ham's F12, Gibco Invitrogen GmbH, Karlsruhe, Germany or DMEM, Sigma-Aldrich, Taufkirchen, Germany; rB1R cells: D-MEM/F12, Gibco Invitrogen GmbH, Karlsruhe, Germany), with 10 vol. % FBS (fetal bovine serum, Gibco Invitrogen GmbH, Karlsruhe, Germany or PAN Biotech GmbH, Aidenbach, Germany).
On the following day, the cells are loaded for 60 minutes at 37° C. with 2.13 μM Fluo-4 (Molecular Probes Europe BV, Leiden, Netherlands) in HBSS buffer (Hank's buffered saline solution, Gibco Invitrogen GmbH, Karlsruhe, Germany) […] (Sigma-Aldrich, Taufkirchen, Germany) and 10 mM HEPES (Sigma-Aldrich, Taufkirchen, Germany). The plates are then washed twice with HBSS buffer, and HBSS buffer additionally containing 0.1% BSA (bovine serum albumin; Sigma-Aldrich, Taufkirchen, Germany), 5.6 mM glucose and 0.05% gelatin (Merck KGaA, Darmstadt, Germany) is added to the plates. After incubation for a further 20 minutes at room temperature, the plates are inserted into the FLIPR for Ca^2+ measurement.
Alternatively, washing is carried out with buffer A (15 mM HEPES, 80 mM NaCl, 5 mM KCl, 1.2 mM CaCl2, 0.7 mM MgSO4, 2 g/l glucose, 2.5 mM probenecid) followed by loading with buffer A with added 2.5 μM Fluo-4 and 0.025% Pluronic F127 (Sigma-Aldrich, Taufkirchen, Germany). The cells are then washed twice with buffer A and incubated for 30 minutes at room temperature with buffer A additionally containing 0.05% BSA and 0.05% gelatin and are then inserted into the FLIPR for Ca^2+ measurement.
The Ca^2+-dependent fluorescence is measured before and after the addition of substances (λex=488 nm, λem=540 nm). Quantification is carried out by measuring the highest fluorescence intensity (FC, fluorescence counts) over time.
The FLIPR protocol consists of two substance additions. Test substances (10 μM) are first pipetted onto the cells and the Ca^2+ influx is compared with the control (hB1R: Lys-Des-Arg^9-bradykinin >=50 nM; rB1R: Des-Arg^9-bradykinin 10 μM). This gives the activation in %, based on the Ca^2+ signal after addition of Lys-Des-Arg^9-bradykinin (>=50 nM) or Des-Arg^9-bradykinin (10 μM). After 10-20 minutes' incubation, Lys-Des-Arg^9-bradykinin (hB1R) or Des-Arg^9-bradykinin (rB1R) is applied in the concentration of the EC80, and the influx of Ca^2+ is likewise determined. Antagonists lead to suppression of the Ca^2+ influx. The % inhibition compared with the maximum achievable inhibition is calculated. […]

The inhibition is the share of the control response that was lost under treatment. In the case of `O=C(CCCC1CCCCN1S(=O)(=O)c1ccccc1C(F)(F)F)N1CCC(CCCN2CCCC2)(c2ccncc2)CC1` (stereo not shown) [Example 58, 1-[4-Pyridin-4-yl-4-(3-pyrrolidin-1-yl-propyl)-piperidin-1-yl]-4-[1-[[2-(trifluoromethyl)-phenyl]sulfonyl]-piperidin-2-yl]-butan-1-one], the inhibition at 10 µM was 99%.

As to `O=C(CCCC1CCCCN1S(=O)(=O)c1ccccc1C(F)(F)F)N1CCC(CCCN2CCCC2)(c2ccncc2)CC1` (stereo not shown) [Example 59, 1-[4-Pyridin-4-yl-4-(3-pyrrolidin-1-yl-propyl)-piperidin-1-yl]-4-[1-[[2-(trifluoromethyl)-phenyl]sulfonyl]-piperidin-2-yl]-butan-1-one], the “B1R antagonism, rat [10 μM] % inhibition” value is on record as 101%.

Regarding `COc1cc(C)c(S(=O)(=O)N2CCCCC2CCCC(=O)N2CCC(CCCN3CCCC3)(c3ccncc3)CC2)c(C)c1` (stereo not shown) [Example 62, 4-[1-[(4-Methoxy-2,6-dimethyl-phenyl)sulfonyl]-piperidin-2-yl]-1-[4-pyridin-4-yl-4-(3-pyrrolidin-1-yl-propyl)-piperidin-1-yl]-butan-1-one], the inhibition at 10 µM is 100%.

For `COc1cc(C)c(S(=O)(=O)N2CCCCC2CCCC(=O)N2CCC(CCCN3CCCC3)(c3ccncc3)CC2)c(C)c1` (stereo not shown) [Example 63, 4-[1-[(4-Methoxy-2,6-dimethyl-phenyl)sulfonyl]-piperidin-2-yl]-1-[4-pyridin-4-yl-4-(3-pyrrolidin-1-yl-propyl)-piperidin-1-yl]-butan-1-one], the “B1R antagonism, rat [10 μM] % inhibition” value is given as 102%.

For `O=C(CCCC1CCCCN1S(=O)(=O)c1cccc2ccccc12)N1CCC(CCCN2CCCC2)(c2ccncc2)CC1` (stereo not shown) [Example 64, 4-[1-(Naphthalen-1-ylsulfonyl)-piperidin-2-yl]-1-[4-pyridin-4-yl-4-(3-pyrrolidin-1-yl-propyl)-piperidin-1-yl]-butan-1-one], the inhibition at 10 µM came to 46%.

In the case of `CS(=O)(=O)N(CCOCC(=O)N1CCC(CCCN2CCCC2)(c2ccncc2)CC1)C(c1ccccc1)c1ccccc1` [Example 65, N-Benzhydryl-N-[2-[2-oxo-2-[4-pyridin-4-yl-4-(3-pyrrolidin-1-yl-propyl)-piperidin-1-yl]-ethoxy]-ethyl]-methanesulfonic acid amide], the “B1R antagonism, rat [10 μM] % inhibition” value is on record as 63%.

Take `CS(=O)(=O)N(CCOCC(=O)N1CCC(CCCN2CCCC2)(c2ccncc2)CC1)C(c1ccccc1)c1ccccc1` [Example 66, N-Benzhydryl-N-[2-[2-oxo-2-[4-pyridin-4-yl-4-(3-pyrrolidin-1-yl-propyl)-piperidin-1-yl]-ethoxy]-ethyl]-methanesulfonic acid amide]: the “B1R antagonism, rat [10 μM] % inhibition” value was 99%.

In the case of `COc1cc(C)c(S(=O)(=O)N2c3ccccc3OCC2COCC(=O)N2CCC(CCCN3CCCC3)(c3ccncc3)CC2)c(C)c1` (stereo not shown) [Example 69, 2-[[4-[(4-Methoxy-2,6-dimethyl-phenyl)sulfonyl]-3,4-dihydro-2H-[1,4]benzoxazin-3-yl]-methoxy]-1-[4-pyridin-4-yl-4-(3-pyrrolidin-1-yl-propyl)-piperidin-1-yl]-ethanone], the inhibition at 10 µM turned out to be 99%.

For `COc1cc(C)c(S(=O)(=O)N2c3ccccc3OCC2COCC(=O)N2CCC(CCCN3CCCC3)(c3ccncc3)CC2)c(C)c1` (stereo not shown) [Example 70, 2-[[4-[(4-Methoxy-2,6-dimethyl-phenyl)sulfonyl]-3,4-dihydro-2H-[1,4]benzoxazin-3-yl]-methoxy]-1-[4-pyridin-4-yl-4-(3-pyrrolidin-1-yl-propyl)-piperidin-1-yl]-ethanone], the “B1R antagonism, rat [10 μM] % inhibition” value came to 100%.

With `O=C(COCC1COc2ccccc2N1S(=O)(=O)c1ccccc1C(F)(F)F)N1CCC(CCCN2CCCC2)(c2cccnc2)CC1` (stereo not shown) [Example 73, 1-[4-Pyridin-3-yl-4-(3-pyrrolidin-1-yl-propyl)-piperidin-1-yl]-2-[[4-[[2-(trifluoromethyl)-phenyl]sulfonyl]-3,4-dihydro-2H-[1,4]benzoxazin-3-yl]-methoxy]-ethanone], the inhibition at 10 µM is 84%.
